Structures are written as SMILES.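 Where inhibition never reached the appropriate level, the endpoint shown equals the highest concentration tested. Otherwise, values were interpolated linearly from a five-concentration, 48-hour dose response in 96-well plates. The concentration for 50% growth inhibition is given as GI50. TGI: concentration producing complete growth inhibition.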 Some results are limits rather than exact numbers.

Test in all cases: inhibition of tumour cell growth, NCI panel, 48 h
Assay [1] relates to EKVX NSCLC.
Assay [2] deals with HOP-18 NSCLC.
For assay [3], the system named is HOP-62 NSCLC.
Assay [4] deals with HT29 colon.
For assay [5], the system named is K-562 leukemia.
For assay [6], the system named is M14 melanoma.
In assay [7] the test system is SF-268 CNS.
The subject of assay [8] is SN12C renal.
For assay [9], the system named is TK-10 renal.
The subject of assay [10] is U251 CNS.

Take `c1cnc2c(c1)-n1cccc1C1(CCSCC1)NN2`: the TGI in assay [1], in assay [2], in assay [3], in assay [4], in [5] and in assay [6] was > 100 µM in each case. For the same molecule, the TGI in assay [7], in [8] and in assay [9] was > 100 µM in each case.
As to `CCN(CC)CCn1c2c3ccccc3ccc2c2oc(=O)c3ccccc3c21`, the TGI in assay [1] is > 100 µM; in [2], > 100 µM; in assay [3], 80.3 µM; in assay [4] it was > 100 µM; in [5], > 100 µM; in assay [6], > 100 µM. Further, the TGI in assay [7], in assay [9] and in [10] was > 100 µM throughout.
On to `COc1cc(-c2cc(=O)c3cc4c(cc3[nH]2)OCO4)cc(OC)c1OC`, for which the TGI in assay [1] was > 100 µM; in [2], > 100 µM; in [3], 65.2 µM; in [4] it was > 100 µM; in assay [5] it was > 100 µM; in assay [6], > 100 µM. The TGI in assay [7], in [8], in assay [9] and in [10] was > 100 µM each time. Besides, the GI50 in [7] is 32.7 µM.
With `CCN(CC)CCCCC1CCN(CC(=O)N2CC(C)C(=O)Nc3ccccc32)CC1` (stereo unspecified), the TGI in [2], in [3], in [4], in assay [5], in assay [6] and in [7] was > 100 µM throughout. The TGI in [8] and in assay [10] was > 100 µM throughout.
Regarding `Cc1cc2c(CC(=O)O)[nH]nc2c(C(=O)O)c1C`, the TGI in [1], in assay [2], in assay [3], in [4], in assay [7] and in [8] was > 100 µM in each case. In addition, the TGI in assay [9] and in assay [10] was > 100 µM each time.
Take `CN1CCN(CCSC2Cc3cc(Cl)ccc3Sc3ccccc32)CC1` (stereo unspecified): the TGI in assay [1] turned out to be 29.2 µM; in [2], 22.6 µM; in assay [3], 26.7 µM; in assay [4], 3.45 µM; in [5] it was 4.9 µM; in [6], 3.66 µM. Besides, the TGI in [7] is 25.6 µM; in assay [8] it was 23.7 µM; in assay [9], 9.67 µM; in [10], 19.1 µM.
As for `Cc1nc2ccc(C(F)(F)F)cc2nc1Nc1ccc(Cl)c(Cl)c1`, the TGI in [2] stood at 29.5 µM; in assay [3], 30.5 µM; in assay [4] it was 18.6 µM; in assay [7] it was 37.5 µM; in assay [8], 24.3 µM; in assay [9], 31.7 µM. Further, the TGI in [10] was 19.4 µM.
Consider `CCOC(=O)CCC(=O)C1c2cccc(O)c2C(=O)c2c(O)cccc21`, for which the TGI in assay [2] is 3.33 µM; in [3], 3.8 µM; in [4], 6.24 µM; in assay [5], > 100 µM; in [6], 1.9 µM; in [8] it was 3.22 µM. Besides, the values for the TGI in assay [9] and in assay [10] were 4.76 µM and 1.53 µM, respectively.
On to `O=C(Nc1ccc(Cl)cc1)Nc1ccc(Cl)c(Cl)c1`, for which the GI50 in assay [1] is 3.41 µM; in assay [3], 4.7 µM; in [4], 3.76 µM; in [5], 2.63 µM; in [6], 4.71 µM; in assay [7], 4.36 µM. For the same molecule, the GI50 was 3.42 µM in [8], 7.64 µM in [9] and 3.52 µM in assay [10]. Moreover, the TGI in assay [1], in assay [3], in [4], in [5], in assay [6] and in assay [7] was > 100 µM in each case. Moreover, the TGI in [8], in [9] and in assay [10] was > 100 µM throughout.
As for `Cc1nn(C(=O)c2ccccc2O)c2c1C(c1ccccc1)SC(N)=N2` (stereo unspecified), the TGI in assay [1] is > 10 µM; in assay [3], > 10 µM; in assay [4], > 10 µM; in [5], 4.76 µM; in assay [6] it was > 10 µM; in assay [7] it was > 10 µM. Further, the TGI in [8], in [9] and in assay [10] was > 10 µM each time.
`O=C(Nc1ccccc1C(F)(F)F)c1cccc(NC2=C(Cl)C(=O)N(Cc3ccccc3)C2=O)c1`: the GI50 is 13.2 µM in assay [1]; 19.1 µM in assay [3]; 65.6 µM in [4]; 3.55 µM in assay [5]; 23 µM in assay [6]; 9.32 µM in [7]. The GI50 was 7.49 µM in assay [8], 6.85 µM in [9] and 6.68 µM in assay [10]. The TGI was 52.6 µM in assay [1]; > 52.2 µM in [3]; > 100 µM in assay [4]; > 100 µM in assay [5]; > 76.8 µM in [6]; > 25.3 µM in assay [7]. In addition, the TGI is > 57.4 µM in assay [8], 37.2 µM in assay [9] and 41.7 µM in assay [10].
As to `O=c1ccn(C2OC(CO)C(O)C2O)c(=O)[nH]1` (stereo unspecified), the GI50 in assay [1], in assay [3], in [4], in assay [5], in assay [7] and in assay [8] was > 1000 µM in each case. Also, the GI50 in assay [9] and in assay [10] was > 1000 µM each time. In addition, the TGI in assay [1], in [3], in assay [4], in [5], in [6] and in [7] was > 1000 µM each time. Besides, the TGI in assay [8], in assay [9] and in assay [10] was > 1000 µM throughout.
Consider `O=C1c2cc(Br)ccc2-c2c1c1ccc([N+](=O)[O-])cc1c(=O)n2CCCCl`, for which the GI50 in [1] was 10.6 µM; in assay [3] it was 0.837 µM; in assay [4] it was 0.309 µM; in [5] it was < 0.0495 µM; in [6] it was 0.534 µM; in [7], < 0.0258 µM. Moreover, the GI50 in [8] was 0.0347 µM; in assay [9] it was 13.8 µM; in assay [10], < 0.0219 µM. The TGI in assay [1] is > 100 µM; in assay [3], 8.28 µM; in assay [4], 12.1 µM; in [5] it was > 43.7 µM; in assay [6], 1.78 µM; in assay [7], 35.5 µM. Moreover, the values for the TGI in [8], in assay [9] and in assay [10] were 2.2 µM, > 57.2 µM and 15.6 µM, respectively.
Regarding `COP1(=O)CC2C(Cl)(Cl)C2(C)C1` (stereo unspecified), the TGI in assay [2], in [3], in assay [4], in assay [5], in [6] and in assay [7] was > 100 µM each time. Moreover, the TGI in assay [8], in assay [9] and in assay [10] was > 100 µM each time.
In the case of `Cc1c(CCCl)c(=O)n2c([nH]c3ccccc32)c1C#N`, the TGI in assay [1] is 3.65 µM; in [3], 3.21 µM; in assay [4] it was 3.49 µM; in [5] it was > 10 µM; in assay [6] it was 2.99 µM; in assay [7] it was 4.41 µM. Besides, the TGI was determined as 2.66 µM in assay [8], 5.62 µM in assay [9] and 3.45 µM in assay [10].
Turning to `Oc1ccc(N=Nc2ccc(Cl)cc2)cc1`, the TGI in assay [1] worked out at 31.8 µM; in assay [3], 35.6 µM; in assay [4], 32.2 µM; in assay [5] it was 55.7 µM; in [6], 23.3 µM; in assay [7], 34.5 µM. For the same molecule, the TGI in assay [8] came out at 31.2 µM; in [9], 33.8 µM; in assay [10], 29.7 µM.
With `CC(=O)N/C(=C\c1ccc(/C=C(\NC(C)=O)c2nc3ccc(Cl)cc3[nH]2)cc1)c1nc2ccccc2[nH]1`, the TGI in assay [1], in assay [3], in assay [4], in assay [5], in assay [6] and in assay [7] was > 100 µM each time. The TGI in [8], in [9] and in [10] was > 100 µM throughout.
Consider `COc1ccc(/C=C/c2cc(OC)c(OC)c(OC)c2)cc1NC(=O)/C=C/c1ccc(F)cc1`, for which the GI50 in [1] was 7.4 µM; in [3] it was 3.84 µM; in [4], 2.34 µM; in assay [5], 1.44 µM; in assay [6], 2.81 µM; in assay [7], 7.7 µM. In addition, the GI50 in [8] is 5.56 µM; in [9], 4.73 µM; in assay [10], 3.17 µM. Further, the TGI in [1] is > 100 µM; in assay [3], > 100 µM; in assay [4], 13.5 µM; in assay [5], > 100 µM; in assay [6] it was > 100 µM; in [7], > 100 µM. Also, the TGI in assay [8], in assay [9] and in assay [10] was > 100 µM throughout.
As to `O=C1C(Br)=C[C@H]2C3C=CC(Br)(C3=O)[C@@H]12` (stereo partly specified), the TGI is 28.8 µM in [1]; > 100 µM in assay [2]; 92.5 µM in [3]; 23.8 µM in [4]; > 100 µM in [5]; 21.6 µM in [6]. Also, the TGI came to 43.6 µM in assay [7], 25.9 µM in assay [8] and 27.3 µM in assay [10].
With `O=[N+]([O-])c1ccc2[nH]cc(-c3c4ccsc4cc4[nH]c5ccc([N+](=O)[O-])cc5c34)c2c1`, the GI50 was 1.56 µM in assay [1]; 1.13 µM in assay [3]; 1.21 µM in [4]; 0.664 µM in assay [5]; 0.527 µM in [6]; 1.39 µM in [7]. Further, the GI50 in assay [8] is 1.43 µM; in assay [9], 2.85 µM; in assay [10], 1.1 µM. In addition, the TGI stood at 11.4 µM in assay [1]; 9.25 µM in assay [3]; 12.5 µM in assay [4]; 12.3 µM in [5]; 1.39 µM in [6]; 18.5 µM in assay [7]. Also, the TGI amounted to 11.4 µM in [8], 18.5 µM in [9] and 16.6 µM in assay [10].
For `CCOC(=O)C(C)(C)Oc1ccc2c(=O)cc(-c3ccc(Cl)cc3)oc2c1`, the TGI in assay [1], in assay [3], in assay [4], in [5], in [6] and in assay [7] was > 100 µM throughout. Further, the TGI in assay [8], in assay [9] and in [10] was > 100 µM throughout.
In the case of `CCCCCCNC(=O)C1=C(C)NC(C)=C(C(=O)NCCCCCC)C1`, the TGI in assay [1], in [3], in assay [4], in assay [5], in [6] and in assay [7] was > 100 µM each time. For the same molecule, the TGI in assay [8], in [9] and in assay [10] was > 100 µM in each case.
As to `COc1cc2c(cc1OCc1ccccc1)N=C[C@@H]1C/C(=C/C(=O)NCCCN3C(=O)c4cccc5cccc(c45)C3=O)CN1C2=O`, the GI50 in assay [1] was 1.75 µM; in assay [3], 0.583 µM; in assay [4], 0.825 µM; in assay [5], 0.424 µM; in [6] it was 2.17 µM; in [7], 0.314 µM. For the same molecule, the GI50 in assay [8] is 0.346 µM; in assay [9], 0.466 µM; in assay [10] it was 0.444 µM. Further, the TGI was 6.17 µM in assay [1]; > 40.3 µM in assay [3]; > 100 µM in assay [4]; > 100 µM in assay [5]; 6.92 µM in [6]; 5.01 µM in [7]. Also, the results for the TGI in assay [8], in [9] and in [10] were 2.4 µM, 3.43 µM and > 100 µM, respectively.
Take `COc1ccc2c(c1)C(=O)CC(N)C2` (stereo unspecified): the TGI in assay [1], in assay [3], in [4], in assay [5], in assay [6] and in [7] was > 100 µM in each case. Besides, the TGI in [8], in assay [9] and in [10] was > 100 µM each time.

(Values after PubChem BioAssay (NCI).)
